Data from patent publication US9434711B2 (Janssen Pharmaceutica, NV, priority 2007, dated 2016).
Several values for one entry are separate records, joined by “and”; a condition that tells them apart may be missing. Equal values may be shown once. Read-outs that look alike come from different tables or passages of the source.

Experiments:
Type in all cases: in vivo, rat
Male Sprague Dawley rats [1] = experiment: Inhibition of Icilin-Induced "Wet-Dog" Shakes in Rats; conditions: Rattus norvegicus, po, HPbCD, Na salt form
Sprague-Dawley rats = experiment: CFA-Induced Paw Radiant Heat Hypersensitivity; conditions: HPbCD, Na salt form
Protocol: Intraplantar injection of complete Freund's adjuvant (CFA) in rodents results in a long-lasting inflammatory reaction, characterized by a pronounced hypersensitivity to both thermal and mechanical stimuli. This hypersensitivity peaks between 24-72 hours following injection and can last for several weeks. To assess whether test compounds of the formula (I) reverse established hypersensitivity, a 100 μL intraplantar injection of CFA (suspended in a 1:1 emulsion of saline and heat-killed Mycobacterium tuberculosis in mineral oil) can be injected into a single hind paw of Sprague-Dawley rats (typically males ranging from 150-350 g). This paradigm also may be conducted with a multiple dosing or a prophylactic dosing regime designed to alter the course of hyperalgesia development. This test predicts the analgesic, anti-allodynic and antihyperalgesic effect of numerous effective clinical agents, including acetaminophen, NSAIDS such as aspirin and ibuprofen, and opioids, such as morphine.
Each rat is placed in a test chamber on a warm glass surface and allowed to acclimate for approximately 10 minutes. A radiant thermal stimulus (beam of light) is then focused through the glass onto the plantar surface of each hind paw in turn. The thermal stimulus is automatically shut off by a photoelectric relay when the paw is moved or when the cut-off time is reached (20 seconds for radiant heat at […]). An initial (baseline) response latency to the thermal stimulus is recorded for each animal prior to the injection of CFA. Twenty-four hours following intraplantar CFA injection, the response latency of the animal to the thermal stimulus is then re-evaluated and compared to the animal's baseline response time. […] Immediately following the post-CFA latency assessment, test compound or vehicle (usually Solutol, hydroxypropyl methylcellulose, hydroxypropyl beta-cyclodextrin or PEG-400) is administered i.p. or p.o. to rats. Post-compound treatment withdrawal latencies are assessed at fixed time intervals, typically 30, 60 and 120 minutes. The percent reversal (% R) of hypersensitivity is calculated according to the following formula: % Reversal=(Treatment Response-CFA Response)/(Baseline Response-CFA Response)×100.

Male Sprague Dawley rats [2] = experiment: Chronic Constriction Injury (CCI)-Induced Model of Neuropathic Pain, Acetone-Induced Hypersensitivity; conditions: Rattus norvegicus, po, Na salt form; for inhibition in vivo at 3 mg/kg: 3 mg/kg p.o.; for inhibition in vivo at 10 mg/kg: 10 mg/kg p.o.; for inhibition in vivo at 17.8 mg/kg: 17.8 mg/kg p.o.; for inhibition in vivo at 30 mg/kg: 30 mg/kg p.o.; for inhibition in vivo at 56 mg/kg: 56 mg/kg p.o.
[3] = 4 h, vehicle HPbCD, Water, pretreatment 4 hr, read-out: Percent Inhibition
[4] = 4 h, HPbCD, pretreatment 4 hr, read-out: Percent Inhibition
[5] = 4 h, Water, pretreatment 4 hr, read-out: Percent Inhibition

Cc1c(N(Cc2ccc(F)c(C(F)(F)F)c2)S(=O)(=O)c2ccc(C(=O)O)cc2)sc2ccccc12 [Compound 306, N-(3-Methyl-benzo[b]thiophen-2-yl)-N-(4-fluoro-3-trifluoromethyl-benzyl)-4-carboxy-benzenesulfonamide]
ED50 (Male Sprague Dawley rats [1]; 1 h, 60 min pre-icilin): 2.5 mg/kg
Percent Reversal (Sprague-Dawley rats; dose 3 p.o., treatment time 100 min): 31%
Percent Reversal (Sprague-Dawley rats; dose 5.6 p.o., treatment time 100 min): 76%
Percent Reversal (Sprague-Dawley rats; dose 10 p.o., treatment time 100 min): 91% and 93%
Percent Reversal (Sprague-Dawley rats; dose 30 p.o., treatment time 100 min): 59%
inhibition in vivo at 3 mg/kg (Male Sprague Dawley rats [2]; [3]): 20%
inhibition in vivo at 10 mg/kg (Male Sprague Dawley rats [2]; [3]): 38%
inhibition in vivo at 17.8 mg/kg (Male Sprague Dawley rats [2]; [3]): 57%
inhibition in vivo at 30 mg/kg (Male Sprague Dawley rats [2]; [3]): 68%
inhibition in vivo at 56 mg/kg (Male Sprague Dawley rats [2]; [3]): 77%
inhibition in vivo at 100 mg/kg (Male Sprague Dawley rats [2]; 4 h, 100 mg/kg p.o., vehicle HPbCD, Water, pretreatment 4 hr, read-out: Percent Inhibition): 77%
inhibition in vivo at 30 mg/kg (Male Sprague Dawley rats [2]; 6 h, HPbCD, pretreatment 6 hr, read-out: Percent Inhibition): 69%
ED50 (Male Sprague Dawley rats [2]; vehicle HPbCD, Water, pretreatment 4 hr): 15 mg/kg

Cc1c(N(Cc2ccc(OC(F)(F)F)cc2)S(=O)(=O)c2ccc(C(=O)O)cc2)sc2ccccc12 [Compound 496, N-(3-Methyl-benzo[b]thiophen-2-yl)-N-(4-trifluoromethoxy-benzyl)-4-carboxy-benzenesulfonamide]
ED50 (Male Sprague Dawley rats [1]; 2 h, 120 min pre-icilin): 2.5 mg/kg
Percent Reversal (Sprague-Dawley rats; dose 1 p.o., treatment time 60 min): 9%
Percent Reversal (Sprague-Dawley rats; dose 3 p.o., treatment time 60 min): −10%
Percent Reversal (Sprague-Dawley rats; dose 5.6 p.o., treatment time 60 min): 10%
Percent Reversal (Sprague-Dawley rats; dose 30 p.o., treatment time 60 min): 30%
inhibition in vivo at 30 mg/kg (Male Sprague Dawley rats [2]; 2 h, Water, pretreatment 2 hr, read-out: Percent Inhibition): 74%
inhibition in vivo at 0.3 mg/kg (Male Sprague Dawley rats [2]; 4 h, 0.3 mg/kg p.o., HPbCD, pretreatment 4 hr, read-out: Percent Inhibition): 28%
inhibition in vivo at 1 mg/kg (Male Sprague Dawley rats [2]; 4 h, 1 mg/kg p.o., HPbCD, pretreatment 4 hr, read-out: Percent Inhibition): 32%
inhibition in vivo at 3 mg/kg (Male Sprague Dawley rats [2]; [4]): 23%
inhibition in vivo at 5.6 mg/kg (Male Sprague Dawley rats [2]; 4 h, 5.6 mg/kg p.o., HPbCD, pretreatment 4 hr, read-out: Percent Inhibition): 72%
inhibition in vivo at 10 mg/kg (Male Sprague Dawley rats [2]; [4]): 71%
inhibition in vivo at 10 mg/kg (Male Sprague Dawley rats [2]; [5]): 76%
inhibition in vivo at 17.8 mg/kg (Male Sprague Dawley rats [2]; [5]): 64%
inhibition in vivo at 30 mg/kg (Male Sprague Dawley rats [2]; [5]): 72%
inhibition in vivo at 56 mg/kg (Male Sprague Dawley rats [2]; [5]): 68%
ED50 (Male Sprague Dawley rats [2]; HPbCD, pretreatment 4 hr): 3.5 mg/kg
